Source: ChEMBL document CHEMBL1138501, “Structure-guided design, synthesis, and evaluation of salicylic acid-based inhibitors targeting a selectivity pocket in the active site of human 20alpha-hydroxysteroid dehydrogenase (AKR1C1)” (J Med Chem, 2009)

Key:
[1] = target: T1, Aldo-keto reductase family 1 member C1 (Homo sapiens, UniProt Q04828); assay: Inhibition of 20-alpha HSD
T1 sequence (Q04828 whole entry): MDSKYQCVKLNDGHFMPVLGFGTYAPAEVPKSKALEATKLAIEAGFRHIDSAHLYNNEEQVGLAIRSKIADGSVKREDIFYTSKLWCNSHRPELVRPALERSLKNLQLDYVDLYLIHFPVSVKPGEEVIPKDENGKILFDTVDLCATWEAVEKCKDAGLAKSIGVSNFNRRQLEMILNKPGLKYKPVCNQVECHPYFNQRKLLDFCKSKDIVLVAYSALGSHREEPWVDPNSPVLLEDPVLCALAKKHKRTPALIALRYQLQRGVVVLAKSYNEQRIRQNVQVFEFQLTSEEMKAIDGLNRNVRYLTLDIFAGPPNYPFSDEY

[2] = Cytotoxicity against BAEC assessed as cell viability at 10 uM; format: cell-based, Bos taurus; settings: cattle
[3] = target: T2, Aldo-keto reductase family 1 member C3 (Homo sapiens, UniProt P42330); assay: Inhibition of human recombinant type 2 3-alpha-HSD expressed in Escherichia coli JM109
T2 sequence (P42330 whole entry): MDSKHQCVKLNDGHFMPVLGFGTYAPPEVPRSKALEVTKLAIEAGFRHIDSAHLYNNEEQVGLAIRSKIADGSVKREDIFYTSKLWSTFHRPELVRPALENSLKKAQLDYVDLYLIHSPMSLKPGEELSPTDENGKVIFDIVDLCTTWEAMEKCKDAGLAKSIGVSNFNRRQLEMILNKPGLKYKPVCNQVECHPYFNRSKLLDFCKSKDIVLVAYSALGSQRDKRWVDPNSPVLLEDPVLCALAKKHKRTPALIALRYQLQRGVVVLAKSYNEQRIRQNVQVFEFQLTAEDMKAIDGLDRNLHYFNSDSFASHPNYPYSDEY

[4] = target: T3, Aldo-keto reductase family 1 member C4 (Homo sapiens, UniProt P17516); assay: Inhibition of human recombinant type 1 3-alpha-HSD expressed in Escherichia coli JM109
T3 sequence (P17516 whole entry): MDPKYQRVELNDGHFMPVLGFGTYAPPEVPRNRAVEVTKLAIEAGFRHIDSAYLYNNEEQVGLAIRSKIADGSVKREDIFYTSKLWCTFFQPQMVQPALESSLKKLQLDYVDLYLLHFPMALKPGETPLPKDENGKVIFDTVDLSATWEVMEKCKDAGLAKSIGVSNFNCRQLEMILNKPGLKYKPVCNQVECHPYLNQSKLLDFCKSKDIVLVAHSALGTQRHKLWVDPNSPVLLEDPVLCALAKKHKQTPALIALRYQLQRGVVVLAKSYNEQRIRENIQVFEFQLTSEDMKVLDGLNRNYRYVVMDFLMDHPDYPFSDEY

[5] = target: T1, Aldo-keto reductase family 1 member C1
Description: Inhibition of human recombinant 20-alpha HSD expressed in Escherichia coli JM109

[6] = target: T4, Aldo-keto reductase family 1 member C1 (Homo sapiens) (UniProt Q04828); settings: 10 uM
T4 sequence (whole entry): T1 sequence (Q04828 whole entry)

Ki [3]	Ki ([4]; read-out: Ki)	Ki [4]	Ki [5]	inhibition [6]	SMILES	IC50 [1]	Activity [2]
–	–	–	–	–	CCc1oc2ccccc2c1C(=O)c1cc(Br)c(O)c(Br)c1 [BENZBROMARONE]	0.048 µM	–
23 µM	45.7 µM	–	–	–	O=C(O)c1cc(Br)cc(Br)c1O	–	Non-toxic
–	–	–	–	–	O=C1OC(c2cc(Br)c(O)c(Br)c2)(c2cc(Br)c(O)c(Br)c2)c2ccccc21	0.033 µM	–
21 µM	–	Not Active	0.14 µM	40%	O=C(O)c1cc(Br)cc(-c2ccccc2)c1O	–	Non-toxic
4.2 µM	18.2 µM	–	–	–	O=C(O)c1cc(-c2ccccc2)cc(Br)c1O	–	Non-toxic
